# Measurements: patent publication US20080279961A1, “TELOMERE TARGETING AGENTS AS STEM CELLS DIRECTED TREATMENTS” (priority 2007, published 2008)
# Legend:
# [1] = test system: HEK293T human embryonic kidney cells; experiment: HTCA colony assay on normal embryonic kidney cells; assay type: cell-based
# Experimental: In human tumor stem cell assay (HTCA)/clonogenic assay, single cell suspensions from in vivo studies above were washed in medium and passed through sieves and the resulting single cell suspensions seeded into soft agar (n=3 tumors per group) as described by us before (Fiebig et al., 2004). Single cell suspensions of cell lines were prepared by trypsinization from cells growing as monolayers on plastic. Briefly, 5,000 (HEK293T cells), 10,000 (PC3, MCF-7 and UXF1138L cells) or 50,000 (UXF1138L tumor tissue) vital cells were added to 0.2 ml Iscove's medium/20% fetal bovine serum/0.05% gentamycin containing 0.4% agar and plated on top of a base layer consisting of 0.2 ml medium with 0.75% agar. The next day, the agar layers were fed with Isocve's medium and cultures incubated at 37° C., 7% CO2 for approximately 11 days. Vital colonies were stained with 2-(4-iodophenyl)-3-(4-nitrophenyl)-5-phenyltetrazolium chloride (1 mg/ml) 24 hrs before evaluation, and colonies >70 μm were counted with an automated image analysis system (Omincon FAS IV, BIOSYS GmbH, Karben, Germany). Drug effect was assessed as growth inhibitory concentrations 50 and 70% (IC50, IC70). Methylcellulose was used to grow cord blood stem cells instead of soft agar. The seeding density was 20,000 cells/well. Stem cell growth factor supplemented and optimized methylcellulose (Methocult H4434) was purchased from Stem Cell Technologies (Vancouver, CA). Methylcellulose lacking growth factors was used as negative growth control. Statistical significance between treatment groups was evaluated by using the Student T-test.
# To assess RHPS4 effects on normal stem cells, the human embryonic kidney cell line HEK293T was exposed to drug in the MTT and HTCA assays, and tested RHPS4 effects on colony forming units of the mononuclear cell fraction of human cord blood in methyl cellulose (FIG. 2C). The cord blood colony assay was performed with and without colony stimulating growth factors, only methylcellulose containing growth factors grew colonies. […] Additionally, in normal cell types as compared to tumor cells, low and pharmacodynamically relevant concentrations of RHPS4 (0.01 to 1 microM) did induce colony formation (FIG. 2C). To assure that the induction of colony growth by RHPS4 in normal stem cells is reproducible, cord blood from three different individuals and HEK293T cells from different passages were used. Data shown in FIG. 2C represent the mean and standard deviation from three independent experiments. […] However, the plating efficiency (actual number of colonies growing per total number of cells seeded) varied among the experiments and therefore the results are shown as % of control growth. E.g. HEK293T control colony growth ranged from a mean number of 54 to 463 colonies per well, but the least percentage (cut-off level) of growth induction by RHPS4 observed in either, the individual HEK293T or the cord blood experiments, was 150%. […] Instead, at RHPS4 levels that induced colony growth 2.4-fold (1 mircoM), bulk cell growth was inhibited to 60% of control (FIG. 2C).
# [2] = test system: Saos-2, HEK293T, UXF 1138, H460; experiment: MTT assay in cell lines with short and long telomeres; assay type: cell-based, human
smiles,measurement,setting,value
"COS(=O)(=O)[O-].Cc1cc2c3c([n+](C)c4ccc(F)cc4c3c1)-c1cc(F)ccc1N2C [RHPS4, 3,11-difluoro-6,8,13-trimethyl-8H-quino[4,3,2-kl]acridinium methosulfate]",concentrations that markedly inhibited tumor colony forming units and induced cord blood and HEK293T colony growth,[1],0.1-1 mircoM
same,sensitivity of cord blood and HEK293T colony forming units versus tumor cell colonies,[1],over a log-fold less sensitive
same,"stimulation of growth, number of colonies compared to vehicle","[1]; 0.1 and 1 mircoM RHPS4, HEK293T",doubling to tripling the number of colonies
same,induction of colony growth,"[1]; 1 mircoM RHPS4, HEK293T",2.4 fold
same,drug concentration at which cell kill of normal stem cells was seen,[1]; HEK293T colony forming units,~10 mircoM
same,concentrations inhibiting normal colony formation above those inhibiting tumor cell colony formation,[1]; human embryonic kidney and cord blood vs tumor cells,over 25 fold
same,RHPS4 concentrations that inhibited colony formation,[1]; human embryonic kidney cells,> 1 mircoM
same,least percentage (cut-off level) of growth induction,"[1]; individual HEK293T experiments, % of control growth",≥ 150%
same,difference in inhibitory concentrations 50% between cell lines with short and long telomeres,[2],two log-fold
